The source of these data is PubChem BioAssay (NCI).

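Briefly, cells in 96-well plates were exposed to five compound concentrations for 48 h, and endpoints were estimated by linear interpolation. TGI: total growth inhibition.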 Bounds are passed on as bounds.

Some test systems named below: NCI-H226 lung; NCI-H522 lung; LOX IMVI melanoma; A498 renal; OVCAR-4 ovarian; COLO 205 colon; 786-0 renal; K-562 leukemia; HS 578T breast; EKVX NSCLC; HCT-15 colon.
Holding throughout (assay): DTP human tumour cell line panel, 48 h

As to `NC(=S)NNCC(=O)CC(O)(C(F)(F)F)C(F)(F)Cl` (configuration not stated), the total growth inhibition concentration (TGI) in the experiment with NCI-H226 lung, in the experiment with NCI-H522 lung, in the experiment on LOX IMVI melanoma, with A498 renal, in the experiment with OVCAR-4 ovarian and in the experiment with COLO 205 colon was > 100 µM each time. Moreover, the TGI with 786-0 renal, in the experiment with K-562 leukemia, in the experiment with HS 578T breast, with EKVX NSCLC and with HCT-15 colon was > 100 µM in each case.
For `O=C(C[N+]12CN3CN(CN(C3)C1)C2)c1ccc(-c2ccccc2)cc1`, the TGI in the experiment on NCI-H226 lung is 49.3 µM; in the experiment on NCI-H522 lung, 38.2 µM; in the experiment with LOX IMVI melanoma it was 30.6 µM; in the experiment with A498 renal it was 44.4 µM; in the experiment on OVCAR-4 ovarian it was > 100 µM; in the experiment on 786-0 renal, 45.9 µM. Moreover, the concentration for total growth inhibition (TGI) was 33.7 µM in the experiment with K-562 leukemia, > 100 µM with HS 578T breast, 44.9 µM with EKVX NSCLC and 86.3 µM in the experiment with HCT-15 colon.
In the case of `CN(C(=O)Cc1ccccc1)n1cn[n+](CC(=O)OC(C)(C)C)c1`, the TGI in the experiment with NCI-H226 lung, in the experiment with NCI-H522 lung, with LOX IMVI melanoma, in the experiment with A498 renal, in the experiment on OVCAR-4 ovarian and in the experiment with COLO 205 colon was > 10 µM in each case. Further, the TGI with 786-0 renal, with K-562 leukemia, in the experiment with HS 578T breast, in the experiment with EKVX NSCLC and in the experiment with HCT-15 colon was > 10 µM in each case.
As to `CSc1c(C(C)=O)c(O)n(-c2ccc(C)cc2)c(=O)c1C#N`, the TGI in the experiment with NCI-H226 lung, in the experiment with NCI-H522 lung, with LOX IMVI melanoma, with A498 renal, in the experiment on OVCAR-4 ovarian and in the experiment on COLO 205 colon was > 100 µM throughout. Besides, the total growth inhibition concentration (TGI) in the experiment on 786-0 renal, with K-562 leukemia, with HS 578T breast, in the experiment on EKVX NSCLC and in the experiment on HCT-15 colon was > 100 µM in each case.
`NC1=Nc2cc(C(F)(F)F)ccc2Sc2nc3ccccc3n21`: the TGI in the experiment with NCI-H226 lung is > 87.5 µM; in the experiment with NCI-H522 lung it was > 71.1 µM; in the experiment on LOX IMVI melanoma, > 100 µM; in the experiment with A498 renal it was > 100 µM; with OVCAR-4 ovarian it was > 100 µM; in the experiment with COLO 205 colon it was > 100 µM. Further, the concentration for total growth inhibition (TGI) with 786-0 renal is > 28.6 µM; in the experiment on K-562 leukemia, > 100 µM; with HS 578T breast, > 100 µM; in the experiment with EKVX NSCLC, > 100 µM; in the experiment on HCT-15 colon it was > 100 µM.
As to `CCCOC(=O)c1cc(O)c(O)c(O)c1`, the TGI in the experiment with NCI-H226 lung is > 100 µM; in the experiment with NCI-H522 lung, 77 µM; in the experiment with LOX IMVI melanoma it was 30.8 µM; in the experiment on A498 renal, > 100 µM; with OVCAR-4 ovarian, > 100 µM; in the experiment on COLO 205 colon, > 100 µM. Moreover, the concentration for total growth inhibition (TGI) in the experiment with 786-0 renal, in the experiment on K-562 leukemia, with HS 578T breast, with EKVX NSCLC and with HCT-15 colon was > 100 µM in each case.
For `O=C(O)CN1C(=O)c2ccc(NC(=O)C(=O)O)cc2S1(=O)=O`, the TGI with NCI-H226 lung, in the experiment with NCI-H522 lung, in the experiment with LOX IMVI melanoma, with A498 renal, in the experiment on OVCAR-4 ovarian and in the experiment on COLO 205 colon was > 100 µM in each case. In addition, the TGI in the experiment on 786-0 renal, with K-562 leukemia, in the experiment with HS 578T breast, in the experiment with EKVX NSCLC and with HCT-15 colon was > 100 µM throughout.
`CNC(=O)OCc1cnc([N+](=O)[O-])n1C`: the TGI with NCI-H226 lung, in the experiment with NCI-H522 lung, with LOX IMVI melanoma, in the experiment with A498 renal, in the experiment with OVCAR-4 ovarian and in the experiment on COLO 205 colon was > 100 µM each time. For the same molecule, the concentration for total growth inhibition (TGI) in the experiment on 786-0 renal, in the experiment on K-562 leukemia, with HS 578T breast, with EKVX NSCLC and with HCT-15 colon was > 100 µM each time.
With `CCOC(=O)N1c2ccccc2C(C)=CC(C)C1C` (configuration not stated), the TGI in the experiment on NCI-H226 lung is 80.1 µM; in the experiment on NCI-H522 lung, 89.6 µM; in the experiment on LOX IMVI melanoma, 63.7 µM; in the experiment on A498 renal, 96.5 µM; with OVCAR-4 ovarian, > 100 µM; in the experiment on COLO 205 colon it was > 100 µM. The TGI in the experiment with 786-0 renal is > 100 µM; in the experiment with K-562 leukemia, > 100 µM; in the experiment on HS 578T breast, 82.2 µM; in the experiment on EKVX NSCLC it was 99 µM; with HCT-15 colon, > 100 µM.
Regarding `O=C(NNC(=O)c1ccco1)c1ccco1`, the concentration for total growth inhibition (TGI) in the experiment on NCI-H226 lung, in the experiment with NCI-H522 lung, in the experiment with LOX IMVI melanoma, in the experiment on A498 renal, in the experiment on OVCAR-4 ovarian and in the experiment on COLO 205 colon was > 100 µM each time. Also, the TGI with 786-0 renal, in the experiment with K-562 leukemia, with HS 578T breast, with EKVX NSCLC and in the experiment on HCT-15 colon was > 100 µM in each case.
Consider `Nc1nc(Sc2ccc([N+](=O)[O-])c3nonc23)c2[nH]cnc2n1`, for which the total growth inhibition concentration (TGI) worked out at 11.3 µM with NCI-H226 lung; 2.44 µM with NCI-H522 lung; 11.7 µM with LOX IMVI melanoma; 13.8 µM with A498 renal; 15.9 µM with OVCAR-4 ovarian; 3.11 µM with COLO 205 colon. In addition, the concentration for total growth inhibition (TGI) amounted to 3.18 µM in the experiment on 786-0 renal; 2.41 µM in the experiment on K-562 leukemia; 62.5 µM in the experiment on HS 578T breast; 19 µM with EKVX NSCLC; 14.1 µM in the experiment with HCT-15 colon.
For the molecule `CC1(C)N=C(C(N)=O)c2[nH]cnc2N1`, the TGI in the experiment on NCI-H226 lung, in the experiment on NCI-H522 lung, with LOX IMVI melanoma, in the experiment with A498 renal, with OVCAR-4 ovarian and in the experiment on COLO 205 colon was > 100 µM in each case. Also, the TGI with 786-0 renal, in the experiment with K-562 leukemia, with HS 578T breast, with EKVX NSCLC and with HCT-15 colon was > 100 µM each time.
With `CO[C@@]12C[C@H](CNC(=O)c3ccc[nH]3)O[C@@H]1NC(=O)N2`, the TGI with NCI-H226 lung, with NCI-H522 lung, in the experiment on LOX IMVI melanoma, in the experiment with A498 renal, in the experiment with OVCAR-4 ovarian and with COLO 205 colon was > 100 µM each time. Further, the TGI with 786-0 renal, with K-562 leukemia, with HS 578T breast, with EKVX NSCLC and in the experiment on HCT-15 colon was > 100 µM each time.

By TGI is commonly meant the concentration giving total growth inhibition.
